Molecular target: T1, UMAMIT18 (Arabidopsis thaliana, UniProt Q9LPF1)
T1 construct: gene At1g44800; cDNA in pDR196-Ws, expressed in yeast 22delta10alpha
T1 sequence (Q9LPF1 1-370): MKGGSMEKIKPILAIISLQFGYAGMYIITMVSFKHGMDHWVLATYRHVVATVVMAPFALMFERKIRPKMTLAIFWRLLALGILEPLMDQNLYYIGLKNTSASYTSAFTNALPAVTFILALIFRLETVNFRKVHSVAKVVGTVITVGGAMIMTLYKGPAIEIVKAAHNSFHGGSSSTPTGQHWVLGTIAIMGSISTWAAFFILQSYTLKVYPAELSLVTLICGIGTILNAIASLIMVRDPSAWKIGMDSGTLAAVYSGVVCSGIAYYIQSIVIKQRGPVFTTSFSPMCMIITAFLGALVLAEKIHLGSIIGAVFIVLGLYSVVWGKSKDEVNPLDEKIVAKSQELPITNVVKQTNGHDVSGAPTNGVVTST
Assay: amino acid secretion into medium by yeast, UPLC
Format: cell-based
Details: export, 22 h growth in minimal medium, yeast 22delta10alpha

| SMILES | amino acid secretion into medium by yeast, UPLC | amino acid secretion into medium by yeast, UPLC (Gln peak not resolved from Arg) |
| --- | --- | --- |
| CC(C)[C@H](N)C(=O)O [Val] | Gln, Val, and Ile represented a larger proportion of the secreted amino acids for UMAMIT18 |  |
| NC(=O)CC[C@H](N)C(=O)O [Gln] |  | Gln, Val, and Ile represented a larger proportion of the secreted amino acids for UMAMIT18 |
